These results are taken from patent US20230391783A1, “COMPOUND CONTAINING 2,4-THIAZOLE RING, PREPARATION METHOD THEREFOR, AND APPLICATION THEREOF” (SHANDONG UNIVERSITY, priority 2021, published 2023).

Series [1] deals with lymphocytes (fresh spleen cells). Description: Lymphocyte proliferation assay (ConA-induced spleen cells). It is filed as cell-based, rat. The method, then: (§1) Lymphocytotoxicity test: rats were euthanized by spinal dislocation method, their spleens were aseptically removed and ground to make a single cell suspension. After removing red blood cells with 2 mL of red blood cell lysis buffer, the cell concentration was adjusted to 2×10^6 cells/mL using RPMI-1640 medium containing 10% fetal bovine serum (FBS). Next, 100 μL of the 2×10^6 cells/mL cell suspension and 100 μL of the appropriate concentration of the tested compound were added to each well of a 96-well plate, and the plate was incubated at 37° C. with 5% CO2 for 48 hours. At the end of the incubation period, 10 μL of CCK8 was added to each well, and the plate was returned to the incubator for 5-7 hours. The OD450 value was then measured at 450 nm using an enzyme-linked immunosorbent assay reader.
Lymphocyte proliferation assay: fresh spleen cells at a concentration of 2×10^6 cells/mL were incubated for 48 hours in an incubator maintained at 37° C. and 5% CO2 for 48 hours, and the culture medium was induced for cell proliferation with 5 μg/mL of ConA, and the appropriate concentration of the tested compound was added to test its inhibitory activity on lymphocyte proliferation. The test results of some compounds are shown in the table below and figures accompanying the application: […]

The test system of series [2] is CD-3 antibody-induced inflammatory factors IL-6, IL-2, TNF-a and IFN-y in serum. Description: Inhibition of CD-3 antibody-induced cytokine storm in mice. The conditions noted are these: 10 mg/kg via tail vein, two injections, CD-3 antibody 100 μg/kg i.p., ELISA (FIG. 5). It is filed as in vivo. The method, then: (§2) A total of 15 healthy male mice were randomly and equally divided into 3 groups, namely, control group, model group and drug administration group, with 5 mice in each group, labeled and their body weight recorded. Respectively administered: the control group and the model group were injected with normal saline via tail vein respectively, and the administration group was injected with the compounds prepared in Examples 1-4 via tail vein respectively; the dose was 10 mg/kg (2 mg/mL; 50 μL/10 g). CD-3 antibody was injected intraperitoneally, 100 μg/kg, after 0.5 hours. A second injection of the drug was given 5 hours later. Blood was collected from the mice 9 hours later, followed by euthanasia.
(§3) ELISA was performed to determine levels of IL-6, IL-2, TNF-a and IFN-y in serum.

The subject of series [3] is LPS-induced inflammatory factors IL-6, IL-2, TNF-a and IFN-y in serum. Briefly: Inhibition of LPS-induced cytokine storm in mice. It is filed as in vivo. As to the method: as §2, with “the” for “the compounds”, “One hour later, LPS” for “CD-3 antibody”, “intraperitoneally at 3 mg/kg (0.3 mg/mL,” for “intraperitoneally,”, “μL/10 g).” for “μg/kg, after 0.5 hours.”
as §3
Histopathological examination was performed on the administration group of compound IA-3: mouse lungs were fixed with 4% paraformaldehyde, and histopathological changes were observed by HE.

Series [4] is described as follows: Pharmacokinetics and oral bioavailability in Wistar rats. It is filed as in vivo. To be noted: rat. As to the method:
To prepare the standard series solution, a suitable amount of compound IA-3 was accurately weighed and placed in a 100 mL volumetric flask. The compound was dissolved in acetonitrile and diluted to the mark to produce a 25.0 μg/mL stock solution. The solution was mixed thoroughly by shaking and used for further analysis. An appropriate amount of the stock solution was taken separately, diluted with acetonitrile, and made up to the mark to prepare a series of standard solutions with concentrations of 5, 10, 25, 50, 100, 250, 500, and 1000 ng/mL. The solutions were stored in a refrigerator at 4° C. for later use.
Preparation of internal standard solution: a suitable amount of internal standard was accurately weighed and placed in a 100 mL volumetric flask. The internal standard was dissolved in acetonitrile and diluted to the mark to produce a 25 μg/mL stock solution. The solution was mixed thoroughly by shaking and used for further analysis. An accurately weighed amount of the stock solution was taken again and diluted with acetonitrile to prepare the internal standard reference solution at a concentration of 50 ng/mL. The solution was stored in a refrigerator at 4° C. for later use.
Preparation of plasma samples: 80 μL of rat plasma was taken, and 120 μL of internal standard was added. The mixture was vortexed for 2 min and centrifuged for 10 min. Then, 140 μL of the supernatant was collected and centrifuged for another 10 min. Finally, 10 μL of the supernatant was injected for analysis.
Standard Curve: 64 μL of blank rat plasma was mixed with 16 μL of the test compound standard series solution and 120 μL of acetonitrile solution containing the internal standard. The mixture was vortexed for 2 minutes and centrifuged for 10 minutes. Then, 140 μL of the supernatant was taken and centrifuged for another 10 minutes, 10 μL of the sample was injected and analyzed with HPLC-HR-MS. Instrumentation obtained the linear regression equation as the standard curve.
Sampling: eight healthy male Wistar rats were randomly divided into two groups (oral group and intravenous group), with four rats in each group. Rats were fasted for 12 h and provided with free access to water before the experiment. The oral group was administered with the test drug at a dose of 5 mg/kg, and the intravenous group was administered with 1 mg/kg. Blood samples of approximately 0.4 mL were collected from the rat orbital vein before and at 5 min, 15 min, 30 min, 1 h, 1.5 h, 2 h, 4 h, 6 h, 8 h, 10 h, and 12 h after administration, and immediately transferred to heparinized centrifuge tubes. Plasma was separated by centrifugation.
Sample determination and data processing: the rat plasma samples were processed according to the “Preparation of plasma samples” procedure and analyzed under the conditions described above. The non-compartmental model was applied to process the drug concentration data mentioned above, and the pharmacokinetic parameters were calculated using the DAD 2.0 software. The bioavailability was calculated according to the formula F=AUCig*Div/AUCiv*Dig*100%.

Another series has as its system lymphocytes. Description: Lymphocytotoxicity test (CCK8, no stimulation factor). It is filed as cell-based, rat. The method, then: as §1
In addition, the toxicity of the compounds on lymphocytes was also tested in this example. The testing method was as follows: the cell density was 3×10^6 cells/mL, and 100 μL of the cell suspension containing 3×10^5 cells/well was added to each well of a 96-well plate without any stimulation factor.

[5] abbreviates: male, Wistar, plasma, iv, single injection 1 mg/kg.
Where [6] appears, read: male, Wistar, plasma, single oral administration 5 mg/kg.
Setting [7] is: single oral administration 5 mg/kg.

As usually defined, the IC50 is the concentration that gives 50% inhibition. Read a low IC50 as higher potency. Broadly, the AUC(0-t) is exposure summed from dosing to a finite time, without extrapolation to infinity. Low values mean less exposure, high ones more exposure. In general, MRT refers to the average time that molecules of a dose stay in the body. As a reminder, the half-life is how long it takes for the measured level to halve. Read a low half-life as rapid decline. As a reminder, the bioavailability is the share of a dose that reaches the circulation, judged against a reference dose that is usually intravenous. For orientation: AUC(0-inf) means total exposure, with the tail of the curve extrapolated. Read a low AUC(0-inf) as less exposure.

In series [1] (Rattus norvegicus, inhibition of lymphocyte proliferation, 5 μg/mL ConA, 48 hours), `O=C(NCc1cccnc1)c1csc(-c2cnn3cccnc23)n1` [IA-3] returned an IC50 of 13.2 ± 2.05 nM. In addition, the “Inhibition rate (%)” value in series [1] (lymphocyte proliferation induced with 5 μg/mL ConA, 48 hours, test concentration not given) is on record as 97.09%. In addition, in series [1] (rat lymphocytes), the “inhibitory effect on lymphocyte proliferation (in words)” value is “particularly significant inhibitory effect on lymphocytes”. For the same compound, the “reduction of CD-3 antibody-induced IL-6, IL-2, TNF-a and IFN-y levels in serum” value in series [2] is recorded as “most significant effect on the reduction of the above factors”. Also, in series [3] (10 mg/kg via tail vein, two injections, LPS 3 mg/kg i.p., ELISA (FIG. 3)), the “reduction of LPS-induced IL-6, IL-2, TNF-a and IFN-y levels in serum” value was “most significant effect on the reduction of the above factors”. Besides, the “lung histopathology (H&E)” value in series [3] (LPS model, 10 mg/kg via tail vein (FIG. 4)) was “reduced the severity of lung pathology”. In series [4] (setting [5]), this compound had an AUC(0-t) of 717 ng·h/mL, an MRT of 30.4 min, a clearance of 45.1 mL/min/kg and a half-life of 21.6 min. Moreover, the Vd in series [4] (male, Wistar, plasma, iv, single injection 1 mg/kg, read-out: Vss) was 1.08 L/kg. The bioavailability in series [4] (male, Wistar, plasma, oral, intragastric 5 mg/kg vs intravenous 1 mg/kg, read-out: relative oral bioavailability) was determined as 22.1%. Further, in series [4] (setting [6]), the AUC(0-inf) is 408 ng·h/mL, the AUC(0-t) was found to be 408 ng·h/mL, the MRT came out at 76.2 min and the half-life was 125 min. In series [4] (setting [7]), this compound came in with a CL of 384 mL/min/kg and a Vss of 69.5 L/kg. Also, the “safety index (in words)” value with lymphocytes is recorded as “high safety index”. In the series with lymphocytes (5, 2.5, 1.25 and 0.625 μM, no stimulation factor (FIG. 2)), the “toxicity on lymphocytes (in words)” value is reported as “less cytotoxicity”.
